Source: patent US20250163006A1, “New Coolants, and Preparations Containing Same” (Symrise AG, priority 2022, published 2025)
pEC50: −log10 of the molar value. Where two headings read alike, the source gives them in different places.

How the values were obtained:
human TRPM8 receptor = molecular target: T1, human TRPM8 receptor (Homo sapiens, UniProt Q7Z2W7); assay: Assay on TRPM8 modulators: Ca2+-sensitive dye (Fluo-4) fluorescence in HEK293-TRPM8 test cells; format: cell-based; parameters: relative TRPM8 activation: concentration or dose not given beside the values; details: for pEC50: HEK293-TRPM8 cells; for relative TRPM8 activation: HEK293 cells recombinantly expressing human TRPM8
T1 construct: expressed in transfected cells; host or cells: HEK293, stably transfected, tetracycline-inducible expression
T1 sequence (Q7Z2W7 whole entry): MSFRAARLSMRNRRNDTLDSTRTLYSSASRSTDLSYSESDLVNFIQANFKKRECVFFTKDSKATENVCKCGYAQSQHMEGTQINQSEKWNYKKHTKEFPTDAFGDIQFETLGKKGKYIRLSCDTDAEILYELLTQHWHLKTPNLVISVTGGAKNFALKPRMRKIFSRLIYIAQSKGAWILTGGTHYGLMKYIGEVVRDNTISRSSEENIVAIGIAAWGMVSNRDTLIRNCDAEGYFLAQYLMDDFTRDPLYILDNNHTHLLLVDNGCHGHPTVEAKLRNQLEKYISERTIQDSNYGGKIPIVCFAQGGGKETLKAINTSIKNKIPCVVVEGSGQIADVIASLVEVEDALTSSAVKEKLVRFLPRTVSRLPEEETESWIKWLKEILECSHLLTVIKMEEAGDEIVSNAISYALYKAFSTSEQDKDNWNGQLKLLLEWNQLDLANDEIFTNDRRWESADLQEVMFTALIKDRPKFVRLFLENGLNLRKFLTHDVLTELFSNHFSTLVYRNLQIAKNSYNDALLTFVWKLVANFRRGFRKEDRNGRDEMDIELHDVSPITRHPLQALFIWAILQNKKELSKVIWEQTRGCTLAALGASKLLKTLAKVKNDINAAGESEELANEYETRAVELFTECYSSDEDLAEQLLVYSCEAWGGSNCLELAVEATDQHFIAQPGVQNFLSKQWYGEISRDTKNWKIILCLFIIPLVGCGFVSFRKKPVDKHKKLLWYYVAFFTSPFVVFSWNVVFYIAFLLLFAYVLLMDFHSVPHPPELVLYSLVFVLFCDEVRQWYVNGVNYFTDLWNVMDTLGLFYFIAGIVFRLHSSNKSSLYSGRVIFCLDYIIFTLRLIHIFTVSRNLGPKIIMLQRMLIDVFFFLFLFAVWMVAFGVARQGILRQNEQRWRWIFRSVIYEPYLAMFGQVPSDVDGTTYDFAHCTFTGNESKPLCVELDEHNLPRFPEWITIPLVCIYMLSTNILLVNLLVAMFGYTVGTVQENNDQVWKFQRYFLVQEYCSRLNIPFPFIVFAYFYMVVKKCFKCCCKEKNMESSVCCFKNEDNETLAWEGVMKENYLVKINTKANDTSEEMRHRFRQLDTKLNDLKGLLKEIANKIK
Procedure, shortened: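 HEK293 cells stably carrying tetracycline-inducible human TRPM8 (1 µg/ml tetracycline), loaded next day with Fluo-4 (30 min 37 °C, 30 min RT). Compounds tested in triplicate at 0.1–200 µM (≤2% DMSO) and fluorescence read at 485/520 nm. EC50 from 4- or 5-parameter logistic fits of 6–10 concentrations.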

[1] = Sensory tasting of cooling intensity by trained panelists, WS-3 as reference; format: in vivo, human; details: 5 ppm in 5% sugar solution, rated after one minute, scale 1 (very weak) to 9 (very strong); for Sensory evaluation: cooling intensity; for cooling intensity (sensory evaluation, score): tasted 40 seconds, n=10 to 11
Method: In order to quantify the cooling effect, comparative tests are carried out using menthane-3-carboxylic acid-N-ethylamide as a reference. For these comparative tests, the skilled person replaces the compound or compounds to be used according to the invention with menthane-3-carboxylic acid-N-ethylamide (also referred to as WS-3). Then the intensities of the cooling effects of the respective compounds or active ingredients are sensory evaluated by trained panelists (n=10 to 11) as described below and compared with each other.
The cooling intensity was tested as follows: Test solutions with 5 ppm of the compounds according to the invention were each tasted in a 5% sugar solution as well as a corresponding solution with 30 ppm of the reference substance WS-3. […] The panelists tasted the corresponding test solutions for exactly 40 seconds, rinsing the entire mouth with the corresponding test solution and then spitting out the sample or reference solution. Following the tasting, the test subjects rated the respective cooling intensity after one minute according to a scale of 1 (very weak) to 9 (very strong).

[2] = TRPM8 activation, 6 to 10 concentrations, logistic curve fitting, read-out: EC50 value

Compound | pEC50 (human TRPM8 receptor; Table 6, read-out: TRPM8 EC50) | pEC50 (human TRPM8 receptor; Table 8, read-out: TRPM8 EC50) | Sensory evaluation ([1]; Table 6) | Sensory evaluation ([1]; Table 10) | cooling intensity (sensory evaluation, score) [1] | Sensory evaluation ([1]; Table 5) | Sensory evaluation ([1]; Table 9) | other results
CNC(=O)[C@H]1C[C@@H]1c1nc(-c2ccccc2)c(-c2ccccc2)o1 (racemic) [Compound A-39, rac-(1S,2S)-2-(4,5-diphenyloxazol-2-yl)-N-methyl-cyclopropane-carboxamides] |  |  | 0.7 |  |  |  |  | relative TRPM8 activation (human TRPM8 receptor): 5%
CNC(=O)C(C)Sc1nc(C)c(-c2ccccc2)o1 (stereo not shown) [Compound A-05, N-methyl-2-(4-methyl-5-phenyl-oxazol-2-yl)sulfanyl-propanamide] | 5.64 | 5.64 | 1.1 | 1.1 |  |  |  | 
CCC(Sc1nc(-c2ccccc2)c(-c2ccccc2)o1)C(=O)NC (stereo not shown) [Compound A-09, 2-(4,5-diphenyloxazol-2-yl)sulfanyl-N-methyl-butanamide] | 5.81 | 5.81 | 4.66 | 4.66 | 4.66 |  |  | 
CC(Sc1nc(-c2ccccc2)c(-c2ccccc2)o1)C(=O)NC1CC1 (stereo not shown) [Compound A-10, N-cyclopropyl-2-(4,5-diphenyloxazol-2-yl) sulfanyl-propanamide] | 5.67 | 5.67 | 5.38 | 5.38 | 5.38 |  |  | 
CCCNC(=O)C(C)Sc1nc(-c2ccccc2)c(-c2ccccc2)o1 (stereo not shown) [Compound A-12, 2-(4,5-diphenyloxazol-2-yl)sulfanyl-N-propyl-propanamide] | 5.29 | 5.29 | 1.26 | 1.26 |  |  |  | 
CNC(=O)CCc1nc(-c2ccccc2)c(-c2ccccc2)o1 [Compound A-16, 3-(4,5-diphenyloxazol-2-yl)-N-methyl-propanamide] | 5.37 | 5.37 | 2.3 | 2.3 |  |  |  | 
O=C(CCc1nc(-c2ccccc2)c(-c2ccccc2)o1)NC1CC1 [Compound A-18, N-cyclopropyl-3-(4,5-diphenyloxazol-2-yl)propanamide] |  |  | 0.71 |  |  |  |  | relative TRPM8 activation (human TRPM8 receptor): 80%
CC(Sc1nc(-c2ccccc2)c(-c2ccccc2)o1)C(N)=O (stereo not shown) [Compound A-20, 2-(4,5-diphenyloxazol-2-yl)sulfanyl-propanamide] |  |  | 0.81 |  |  |  |  | relative TRPM8 activation (human TRPM8 receptor): 73%
O=C(CCc1nc(-c2ccccc2)c(-c2ccccc2)o1)NC1CC1 [Compound A-22, N-cyclopropyl-3-(4,5-diphenyloxazol-2-yl)propanamide] |  |  | 0.8 |  |  |  |  | relative TRPM8 activation (human TRPM8 receptor): 69%
CCSc1nc(-c2ccccc2)c(-c2ccccc2)o1 [Compound A-55, 2-ethylsulfanyl-4,5-diphenyl-oxazole] |  |  | 0.59 |  |  |  |  | relative TRPM8 activation (human TRPM8 receptor): 1%
CC(Sc1nnc(-c2ccccc2)c(-c2ccccc2)n1)C(=O)NC1CC1 (stereo not shown) [Compound B-01, N-Cyclopropyl-2-[(5,6-diphenyl-1,2,4-triazin-3-yl)sulfanyl] propanamide] |  |  |  |  | 4.2 | 4.2 | 4.2 | pEC50 (human TRPM8 receptor; [2]): ≥ 6.00; pEC50 (human TRPM8 receptor; Table 5, read-out: TRPM8 EC50): 7.30; pEC50 (human TRPM8 receptor; Table 7, read-out: TRPM8 EC50): 7.30
CNC(=O)C(C)Sc1cnc(-c2ccccc2)c(-c2ccccc2)n1 (stereo not shown) [Compound B-02, 2-(5,6-diphenylpyrazin-2-yl)sulfanyl-N-methyl-propanamide] |  |  |  |  | 4.1 | 4.1 | 4.1 | pEC50 (human TRPM8 receptor; [2]): ≥ 6.00; pEC50 (human TRPM8 receptor; Table 5, read-out: TRPM8 EC50): 7.10; pEC50 (human TRPM8 receptor; Table 7, read-out: TRPM8 EC50): 7.10
O=C(CSc1nnc(-c2ccccc2)c(-c2ccccc2)n1)N1CCC1 [Compound B-06, 1-(azetidin-1-yl)-2-[(5,6-diphenyl-1,2,4-triazin-3-yl)sulfanyl]ethanone] |  |  |  |  |  | 3.0 | 3.0 | pEC50 (human TRPM8 receptor; [2]): ≥ 6.00; pEC50 (human TRPM8 receptor; Table 5, read-out: TRPM8 EC50): 6.55; pEC50 (human TRPM8 receptor; Table 7, read-out: TRPM8 EC50): 6.55
CNC(=O)C(C)Sc1nnc2c3ccccc3c3ccccc3c2n1 (stereo not shown) [Compound B-07, N-methyl-2-phenanthro[9,10-e][1,2,4]triazine-3-ylsulfanyl-propanamide] |  |  |  |  |  | 0.75 | 0.75 | pEC50 (human TRPM8 receptor; EC50 value, TRPM8 activation, 6 to 10 concentrations, logistic curve fitting): ≥ 6.00; pEC50 (human TRPM8 receptor; TRPM8 EC50, Table 5): 6.04; pEC50 (human TRPM8 receptor; TRPM8 EC50, Table 7): 6.04
CNC(=O)C(C)Sc1nnc(-c2ccccc2)c(-c2ccccc2)n1 (stereo not shown) [Compound B-11, 2-[(5,6-diphenyl-1,2,4-triazin-3-yl)sulfanyl]-N-methyl-propanamide] |  |  |  |  | 5.3 | 5.3 | 5.3 | pEC50 (human TRPM8 receptor; Table 5, read-out: TRPM8 EC50): 5.84; pEC50 (human TRPM8 receptor; Table 7, read-out: TRPM8 EC50): 5.84
O=C(CSc1nnc(-c2ccccc2)c(-c2ccccc2)n1)NC1CC1 [Compound B-19, N-cyclopropyl-2-[(5,6-diphenyl-1,2,4-triazin-3-yl)sulfanyl]acetamide] |  |  |  |  |  | 1.9 | 1.9 | 

More lines, main results first:

pEC50 (human TRPM8 receptor; Table 6, read-out: TRPM8 EC50) | pEC50 (human TRPM8 receptor; Table 8, read-out: TRPM8 EC50) | Compound | Sensory evaluation ([1]; Table 6) | Sensory evaluation ([1]; Table 10) | cooling intensity (sensory evaluation, score) [1] | Sensory evaluation ([1]; Table 5) | Sensory evaluation ([1]; Table 9) | other results
6.22 | 6.22 | CNC(=O)[C@H]1C[C@H]1c1nc(-c2ccccc2)c(-c2ccccc2)o1 (racemic) [Compound A-04, rac-(1S,2R)-2-(4,5-diphenyloxazol-2-yl)-N-methyl-cyclopropane-carboxamides] | 0.5 | 0.5 |  |  |  | pEC50 (human TRPM8 receptor; [2]): ≥ 6.00
8.00 | 8.00 | CNC(=O)C(C)Sc1nc(-c2ccccc2)c(-c2ccccc2)o1 (stereo not shown) [Compound A-02, 2-(4,5-diphenyloxazol-2-yl)sulfanyl-N-methyl-propanamide] | 5.4 | 5.4 | 5.4 |  |  | 
6.82 | 6.82 | CCNC(=O)CCc1nc(-c2ccccc2)c(-c2ccccc2)o1 [Compound A-07, 3-(4,5-diphenyloxazol-2-yl)-N-ethyl-propanamide] | 2.67 | 2.67 |  |  |  | pEC50 (human TRPM8 receptor; [2]): ≥ 6.00
